Patent US20140007865A1, “OLOPATADINE NASAL SPRAY REGIMEN FOR CHILDREN” (Alcon Research, Ltd., priority 2009, published 2014)

Assay: Acid-base equilibrium (pKa) of olopatadine
Format: physicochemical
Text: Olopatadine has both a carboxylic functional group (pKa1=4.18) and a tertiary amino group (pKa2=9.79). It exists in different ionic forms depending upon the pH of the solution. Olopatadine exists predominantly as a zwitterion in the pH range between the two pKa values with a negatively-charged carboxylic group and a positively-charged tertiary amino group. The iso-electric point of the olopatadine zwitterion is at pH 6.99. At a pH lower than pKa1, cationic olopatadine (with ionized tertiary amino group) is dominant. At a pH higher than pKa2, anionic olopatadine (with ionized carboxylic group) is dominant.

iso-electric point of the olopatadine zwitterion: 6.99 pH
pKa1 (carboxylic functional group): 4.18
pKa2 (tertiary amino group): 9.79
Compound: CN(C)CC/C=C1/c2ccccc2COc2ccc(CC(=O)O)cc21 [Olopatadine, Z-11-(3-dimethylaminopropylidene)-6,1′-dihydrodibenz[b,e]oxepine-2-acetic acid]
